# From ChEMBL document CHEMBL1909046, “DrugMatrix in vitro pharmacology data”
# What was measured:
# [1] = molecular target: Histamine H2 receptor (Homo sapiens, UniProt P25021); type: cell membranes, CHO-K1, Membrane; also: in other assays of this panel Not Active means under 50% inhibition at 10 µM
# [2] = molecular target: Epidermal growth factor receptor (Homo sapiens, UniProt P00533); test: DRUGMATRIX: Protein Tyrosine Kinase, EGF Receptor enzyme inhibition (substrate: Poly(Glu:Tyr)); type: cell-based, Insect cells; conditions: insect cells, Not Active = under 50% inhibition at 10 µM
# [3] = molecular target: T1, Alpha-1B adrenergic receptor (Rattus norvegicus, UniProt P15823); test: DRUGMATRIX: Alpha-1B adrenergic receptor radioligand binding (ligand: prazosin); type: cell membranes, Wistar, Liver, Membrane; conditions: Not Active = under 50% inhibition at 10 µM
# T1 sequence (P15823 whole entry): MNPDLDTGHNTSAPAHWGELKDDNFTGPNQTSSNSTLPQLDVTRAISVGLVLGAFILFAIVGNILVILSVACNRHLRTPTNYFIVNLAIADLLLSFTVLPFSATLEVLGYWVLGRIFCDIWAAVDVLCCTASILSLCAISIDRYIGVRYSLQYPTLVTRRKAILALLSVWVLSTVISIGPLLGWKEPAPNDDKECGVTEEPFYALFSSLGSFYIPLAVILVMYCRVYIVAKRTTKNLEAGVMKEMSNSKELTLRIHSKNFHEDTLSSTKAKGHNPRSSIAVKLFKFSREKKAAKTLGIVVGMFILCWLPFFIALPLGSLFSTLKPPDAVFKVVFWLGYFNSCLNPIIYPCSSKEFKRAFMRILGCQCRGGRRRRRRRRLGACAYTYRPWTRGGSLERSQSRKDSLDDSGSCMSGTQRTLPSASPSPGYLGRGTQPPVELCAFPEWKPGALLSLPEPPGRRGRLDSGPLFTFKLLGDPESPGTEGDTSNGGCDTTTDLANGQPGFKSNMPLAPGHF
# [4] = molecular target: Mitogen-activated protein kinase 14 (Homo sapiens, UniProt Q16539); parameters: species or system Escherichia coli;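 also: inhibition of p38alpha enzyme activity in a biochemical kinase assay, with myelin basic protein serving as substrate; in other assays of this panel Not Active means under 50% inhibition at 10 µM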
# [5] = molecular target: Platelet-activating factor receptor (Homo sapiens, UniProt P25105); type: tissue-based; also: in other assays of this panel Not Active means under 50% inhibition at 10 µM
# Platelet-activating factor receptor, sequence (P25105 whole entry): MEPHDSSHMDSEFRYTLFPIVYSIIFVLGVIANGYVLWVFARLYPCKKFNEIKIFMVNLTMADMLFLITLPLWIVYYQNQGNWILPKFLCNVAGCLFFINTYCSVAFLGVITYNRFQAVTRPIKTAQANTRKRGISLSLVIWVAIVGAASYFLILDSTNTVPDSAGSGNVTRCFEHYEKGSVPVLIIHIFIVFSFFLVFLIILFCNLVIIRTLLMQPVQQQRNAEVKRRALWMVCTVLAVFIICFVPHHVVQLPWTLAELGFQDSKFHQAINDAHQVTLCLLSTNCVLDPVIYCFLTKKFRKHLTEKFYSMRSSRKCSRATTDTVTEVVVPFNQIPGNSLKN
# Histamine H2 receptor, sequence (P25021 whole entry): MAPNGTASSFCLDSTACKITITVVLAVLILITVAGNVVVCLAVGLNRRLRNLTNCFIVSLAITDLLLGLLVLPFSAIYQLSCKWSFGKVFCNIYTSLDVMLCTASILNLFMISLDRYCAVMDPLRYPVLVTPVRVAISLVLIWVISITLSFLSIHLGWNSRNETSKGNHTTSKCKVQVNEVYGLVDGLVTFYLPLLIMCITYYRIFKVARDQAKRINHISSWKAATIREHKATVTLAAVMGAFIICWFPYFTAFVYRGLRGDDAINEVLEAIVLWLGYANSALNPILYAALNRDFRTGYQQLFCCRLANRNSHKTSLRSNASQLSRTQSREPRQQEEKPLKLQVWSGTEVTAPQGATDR
# Mitogen-activated protein kinase 14, sequence (Q16539 whole entry): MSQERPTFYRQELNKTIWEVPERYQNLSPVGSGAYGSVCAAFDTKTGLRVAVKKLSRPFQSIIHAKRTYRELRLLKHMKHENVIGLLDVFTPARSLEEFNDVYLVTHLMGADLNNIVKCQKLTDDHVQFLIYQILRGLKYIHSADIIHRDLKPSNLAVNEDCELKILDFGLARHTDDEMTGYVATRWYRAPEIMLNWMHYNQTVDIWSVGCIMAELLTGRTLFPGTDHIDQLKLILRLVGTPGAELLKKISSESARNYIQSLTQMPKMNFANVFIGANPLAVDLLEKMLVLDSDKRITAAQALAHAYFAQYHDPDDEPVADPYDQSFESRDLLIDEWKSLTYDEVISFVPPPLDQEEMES
Molecule,IC50 ([1]; cho-k1),IC50 [2],IC50 [3],IC50 [4],IC50 [5],also measured
CC(C)(C#N)c1cc(Cn2cncn2)cc(C(C)(C)C#N)c1 [ANASTROZOLE],Not Active,Not Active,Not Active,Not Active,Not Active,
CC12CCC(CC1=O)C2(C)C (centres undefined) [CAMPHOR],Not Active,Not Active,Not Active,Not Active,Not Active,
CC12CCC(CC1)C(C)(C)O2 [EUCALYPTOL],Not Active,Not Active,Not Active,Not Active,Not Active,
Cc1ccnc2c1NC(=O)c1cccnc1N2C1CC1 [NEVIRAPINE],Not Active,Not Active,Not Active,Not Active,Not Active,
Clc1cc(Cl)c(OCC#CI)cc1Cl [HALOPROGIN],Not Active,Not Active,Not Active,Not Active,Not Active,
Oc1ccccc1 [PHENOL],Not Active,Not Active,Not Active,Not Active,Not Active,
CCCCCCNC(=O)n1cc(F)c(=O)[nH]c1=O [CARMOFUR],Not Active,Not Active,Not Active,Not Active,Not Active,
Nc1ccc(C(=O)O)c(O)c1 [AMINOSALICYLIC ACID],Not Active,Not Active,Not Active,Not Active,Not Active,
COc1cc(NC(C)CCCN)c2ncccc2c1 (centres undefined) [PRIMAQUINE],Not Active,Not Active,Not Active,Not Active,Not Active,
Cc1cc(C(C)(C)C)c(O)c(C)c1CC1=NCCN1 [OXYMETAZOLINE],Not Active,Not Active,,Not Active,Not Active,
O=c1[nH]cnc2c1ncn2[C@H]1CC[C@@H](CO)O1 [DIDANOSINE],Not Active,Not Active,Not Active,Not Active,Not Active,
CC(=O)[C@]1(O)Cc2c(O)c3c(c(O)c2[C@@H](O[C@H]2C[C@H](N)[C@H](O)[C@H](C)O2)C1)C(=O)c1ccccc1C3=O [IDARUBICIN],Not Active,Not Active,Not Active,Not Active,Not Active,
COC(=O)Nc1nc2ccc(Sc3ccccc3)cc2[nH]1 [FENBENDAZOLE],Not Active,Not Active,Not Active,,Not Active,IC50 ([4]; read-out: IC50): 3190 nM
CC(C)(c1ccc(O)cc1)c1ccc(O)cc1 [BISPHENOL A],Not Active,Not Active,Not Active,Not Active,Not Active,
"C=C(Cl)Cl [1,1-DICHLOROETHENE]",Not Active,Not Active,Not Active,Not Active,Not Active,
O=C(O)CCc1nc(-c2ccccc2)c(-c2ccccc2)o1 [OXAPROZIN],Not Active,Not Active,Not Active,Not Active,Not Active,
NCC(CC(=O)O)c1ccc(Cl)cc1 (centres undefined) [BACLOFEN],Not Active,Not Active,Not Active,Not Active,Not Active,
CC[C@H]1OC(=O)[C@H](C)[C@@H](O[C@H]2C[C@@](C)(OC)[C@@H](O)[C@H](C)O2)[C@H](C)[C@@H](O[C@@H]2O[C@H](C)C[C@H](N(C)C)[C@H]2O)[C@](C)(O)C[C@@H](C)C(=O)[C@H](C)[C@@H](O)[C@]1(C)O [ERYTHROMYCIN],Not Active,Not Active,Not Active,Not Active,Not Active,
C=CCO [ALLYL ALCOHOL],Not Active,Not Active,Not Active,Not Active,Not Active,

Molecule,IC50 ([1]; cho-k1),IC50 [2],IC50 [3],IC50 [4],IC50 [5],also measured
COC(=O)C[C@](O)(CCC(C)(C)O)C(=O)O[C@@H]1C(OC)=C[C@]23CCCN2CCc2cc4c(cc2[C@H]13)OCO4 [HARRINGTONINE],Not Active,Not Active,Not Active,Not Active,Not Active,
CHROMIC CHLORIDE,Not Active,,Not Active,Not Active,Not Active,Ki ([1]; cho-k1): Not Active; IC50 ([2]; read-out: IC50): 2960 nM; Ki [3]: Not Active; Ki [4]: Not Active; Ki [5]: Not Active
C#C[C@]1(O)CC[C@H]2[C@@H]3CCC4=CC(=O)CC[C@@H]4[C@H]3CC[C@@]21C [NORETHINDRONE],Not Active,Not Active,Not Active,Not Active,Not Active,
O=C1CN(/N=C/c2ccc([N+](=O)[O-])o2)C(=O)N1 [NITROFURANTOIN],Not Active,Not Active,Not Active,Not Active,Not Active,
c1ccc2c(c1)Nc1ccccc1S2 [PHENOTHIAZINE],Not Active,Not Active,Not Active,Not Active,Not Active,
CC(CN1c2ccccc2Sc2ccccc21)N(C)C (centres undefined) [PROMETHAZINE],,Not Active,,Not Active,Not Active,IC50 ([1]; read-out: IC50): 1160 nM; Ki ([1]; read-out: Ki): 1150 nM; IC50 ([3]; read-out: IC50): 39 nM; Ki ([3]; read-out: Ki): 21 nM
c1ccc(Cn2ccnc2)cc1,Not Active,Not Active,Not Active,Not Active,Not Active,
CC(C)Cn1cnc2c(N)nc3ccccc3c21 [IMIQUIMOD],,Not Active,Not Active,Not Active,Not Active,IC50 ([1]; read-out: IC50): 1510 nM; Ki ([1]; read-out: Ki): 1480 nM
OC[C@H]1OC2C3[C@@H](CO)OC(O[C@H]4[C@H](O)[C@@H](O)[C@@H](O[C@H]5[C@H](O)[C@@H](O)[C@@H](O[C@H]6[C@H](O)[C@@H](O)[C@@H](O[C@H]7[C@H](O)[C@@H](O)[C@@H](O[C@H]8[C@H](O)[C@@H](O)[C@@H](O[C@H]9[C@H](O)[C@@H](O)C(OC1[C@H](O)[C@H]2O)O[C@@H]9CO)O[C@@H]8CO)O[C@@H]7CO)O[C@@H]6CO)O[C@@H]5CO)O[C@@H]4CO)[C@H](O)[C@H]3O,Not Active,Not Active,Not Active,Not Active,Not Active,
COc1cc(/C=C/C(=O)O)ccc1O [FERULATE],Not Active,Not Active,Not Active,Not Active,Not Active,
CCN1C[C@]2(COC)[C@H](O)C[C@H](OC)[C@@]34[C@@H]5C[C@@]6(O)[C@H](OC(=O)c7ccccc7)[C@@H]5[C@@](OC(C)=O)([C@@H]([C@H](OC)[C@H]23)[C@@H]14)[C@@H](O)[C@@H]6OC [ACONITINE],Not Active,Not Active,Not Active,Not Active,Not Active,
CO[C@H]1O[C@@H]2O[C@@]3(C)CC[C@H]4[C@H](C)CC[C@@H]([C@H]1C)[C@@]24OO3,Not Active,Not Active,Not Active,Not Active,Not Active,
C[C@@H]1[C@H](O)[C@@H](C)/C=C/C=C/C=C/C=C/C=C/C=C/C=C/[C@H](O[C@@H]2O[C@H](C)[C@@H](O)[C@H](N)[C@@H]2O)C[C@@H]2O[C@](O)(C[C@@H](O)C[C@@H](O)[C@H](O)CC[C@@H](O)C[C@@H](O)CC(=O)O[C@H]1C)C[C@H](O)[C@H]2C(=O)O [AMPHOTERICIN B],Not Active,Not Active,Not Active,Not Active,Not Active,
Oc1ncnc2[nH]ncc12 [ALLOPURINOL],Not Active,Not Active,Not Active,Not Active,Not Active,
COc1cc([C@@H]2c3cc4c(cc3[C@H](O)[C@H]3COC(=O)[C@H]23)OCO4)cc(OC)c1OC [PODOFILOX],Not Active,Not Active,Not Active,Not Active,Not Active,
NC(=O)CN1CCCC1=O,Not Active,Not Active,Not Active,Not Active,Not Active,
POVIDONE,Not Active,Not Active,Not Active,Not Active,Not Active,Ki ([1]; cho-k1): Not Active; Ki [2]: Not Active; Ki [3]: Not Active; Ki [4]: Not Active; Ki [5]: Not Active
CNC[C@H](O)c1ccc(O)c(O)c1 [EPINEPHRINE],Not Active,Not Active,,Not Active,Not Active,
COc1ccccc1OCCNCC(O)COc1cccc2[nH]c3ccccc3c12 (centres undefined) [CARVEDILOL],Not Active,Not Active,,Not Active,Not Active,
